17 compounds from patent publication US11591341B2 (ALIGOS THERAPEUTICS, INC., priority 2019, dated 2023) can be followed below.

The subject of the test is HBV. Kind of test: HBV-DNA Antiviral Assay Using HepG2.117 Cells (intracellular HBV DNA by qPCR). The format is cell-based, hepatitis B virus (genotype D). Particulars: Hepatitis B virus, HepG2.117. In outline:
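Endpoint: qPCR copy number of intracellular HBV DNA after 3-day compound exposure, with inhibition set relative to the 2% DMSO control. The cells were doxycycline-free HepG2.117 carrying a Tet-off genotype D genome, dosed at nine 4-fold dilutions. A duplicate plate gave ATP-based viability (CC50).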
In general terms: Real-time PCR tracks product formation cycle by cycle.
With `N#CCOc1ccc(CNC(=O)c2c3n(c(=O)n2-c2ccc(OCC(F)(F)F)cc2)CCN(C(=O)c2ccc(Br)c(Cl)c2)C3)c(F)c1` [Example 326, 7-(4-bromo-3-chloro-benzoyl)-N-[[4-(cyanomethoxy)-2-fluoro-phenyl]methyl]-3-oxo-2-[4-(2,2,2-trifluoroethoxy)phenyl]-6,8-dihydro-5H-imidazo[1,5-a]pyrazine-1-carboxamide], the EC50 is 100 to 500 nM. In the case of `O=C(NCc1ccccc1-n1cc(F)cn1)c1c2n(c(=O)n1-c1ccc(OCC(F)(F)F)cc1)CCN(C(=O)c1ccc(Br)c(Cl)c1)C2` [Example 327, 7-(4-bromo-3-chloro-benzoyl)-N-[[2-(4-fluoropyrazol-1-yl)phenyl]methyl]-3-oxo-2-[4-(2,2,2-trifluoroethoxy)phenyl]-6,8-dihydro-5H-imidazo[1,5-a]pyrazine-1-carboxamide], the EC50 was < 100 nM.

For `NC(=O)COc1ccc(CNC(=O)c2c3n(c(=O)n2-c2ccc(OCC(F)(F)F)cc2)CCN(C(=O)c2ccc(Br)c(Cl)c2)C3)c(-n2cccn2)c1` [Example 328, N-[[4-(2-amino-2-oxo-ethoxy)-2-pyrazol-1-yl-phenyl]methyl]-7-(4-bromo-3-chloro-benzoyl)-3-oxo-2-[4-(2,2,2-trifluoroethoxy)phenyl]-6,8-dihydro-5H-imidazo[1,5-a]pyrazine-1-carboxamide], the concentration for a half-maximal effect (EC50) fell in the range of 500 to 5000 nM. `O=C(NCc1ccc(OC2COC2)cc1F)c1c2n(c(=O)n1-c1ccc(OCC(F)(F)F)cc1)CCN(C(=O)c1ccc(Br)c(Cl)c1)C2` [Example 329, 7-(4-bromo-3-chloro-benzoyl)-N-[[2-fluoro-4-(oxetan-3-yloxy)phenyl]methyl]-3-oxo-2-[4-(2,2,2-trifluoroethoxy)phenyl]-6,8-dihydro-5H-imidazo[1,5-a]pyrazine-1-carboxamide] registered an EC50 of 100 to 500 nM. On to `O=C(NCc1ccccc1)c1c2n(c(=O)n1-c1ccc(OC3CC(F)(F)C3)cc1)CCN(C(=O)c1ccc(Br)c(Cl)c1)C2` [Example 350, N-benzyl-7-(4-bromo-3-chloro-benzoyl)-2-[4-(3,3-difluorocyclobutoxy)phenyl]-3-oxo-6,8-dihydro-5H-imidazo[1,5-a]pyrazine-1-carboxamide], for which the EC50 fell in the range of 500 to 5000 nM.

Consider `N#Cc1ccc(-n2c(C(=O)NCc3ccccc3)c3n(c2=O)CCN(C(=O)c2ccc(Br)c(Cl)c2)C3)c(Cl)c1` [Example 351, N-benzyl-7-(4-bromo-3-chloro-benzoyl)-2-(2-chloro-4-cyano-phenyl)-3-oxo-6,8-dihydro-5H-imidazo[1,5-a]pyrazine-1-carboxamide], for which the EC50 is > 5000 nM. Compound `O=C(NCc1ccccc1)c1c2n(c(=O)n1-c1ccc3[nH]c(C(F)(F)F)cc3c1)CCN(C(=O)c1ccc(Br)c(Cl)c1)C2` [Example 352, N-benzyl-7-(4-bromo-3-chloro-benzoyl)-3-oxo-2-[2-(trifluoromethyl)-1H-indol-5-yl]-6,8-dihydro-5H-imidazo[1,5-a]pyrazine-1-carboxamide] registered an EC50 of 500 to 5000 nM. Then `O=C(NCc1ccc(OC2COC2)cc1F)c1c2n(c(=O)n1-c1ccc(OC3CC3)cc1)CCN(C(=O)c1ccc(Br)c(Cl)c1)C2` [Example 363, 7-(4-bromo-3-chloro-benzoyl)-2-[4-(cyclopropoxy)phenyl]-N-[[2-fluoro-4-(oxetan-3-yloxy)phenyl]methyl]-3-oxo-6,8-dihydro-5H-imidazo[1,5-a]pyrazine-1-carboxamide], with 100 to 500 nM. Then `Cn1ncc2cc(-n3c(C(=O)NCc4ccccc4)c4n(c3=O)CCN(C(=O)c3ccc(Br)c(Cl)c3)C4)ccc21` [Example 364, N-benzyl-7-(4-bromo-3-chloro-benzoyl)-2-(1-methylindazol-5-yl)-3-oxo-6,8-dihydro-5H-imidazo[1,5-a]pyrazine-1-carboxamide], with 100 to 500 nM. In the case of `CC(C)(Oc1ccc(CNC(=O)c2c3n(c(=O)n2-c2ccc(OC4CC4)cc2)CCN(C(=O)c2ccc(Br)c(Cl)c2)C3)c(F)c1)C(N)=O` [Example 365, N-[[4-(2-amino-1,1-dimethyl-2-oxo-ethoxy)-2-fluoro-phenyl]methyl]-7-(4-bromo-3-chloro-benzoyl)-2-[4-(cyclopropoxy)phenyl]-3-oxo-6,8-dihydro-5H-imidazo[1,5-a]pyrazine-1-carboxamide], the EC50 was < 100 nM.

Turning to `O=C(NCc1ccccc1-c1ncco1)c1c2n(c(=O)n1-c1ccc(OC3CC3)cc1)CCN(C(=O)c1ccc(Br)c(Cl)c1)C2` [Example 366, 7-(4-bromo-3-chloro-benzoyl)-2-[4-(cyclopropoxy)phenyl]-N-[(2-oxazol-2-ylphenyl)methyl]-3-oxo-6,8-dihydro-5H-imidazo[1,5-a]pyrazine-1-carboxamide], the concentration for a half-maximal effect (EC50) is < 100 nM.

For the compound `O=C(NCc1cccc2[nH]cnc12)c1c2n(c(=O)n1-c1ccc(OC3CC3)cc1)CCN(C(=O)c1ccc(Br)c(Cl)c1)C2` [Example 367, N-(1H-benzoimidazol-4-ylmethyl)-7-(4-bromo-3-chloro-benzoyl)-2-[4-(cyclopropoxy)phenyl]-3-oxo-6,8-dihydro-5H-imidazo[1,5-a]pyrazine-1-carboxamide], the EC50 lay within 100 to 500 nM. Compound `O=C(NCc1cccc2[nH]cnc12)c1c2n(c(=O)n1-c1ccc(OCC(F)(F)F)cc1)CCN(C(=O)c1ccc(Br)c(Cl)c1)C2` [Example 368, N-(1H-benzimidazol-4-ylmethyl)-7-(4-bromo-3-chloro-benzoyl)-3-oxo-2-[4-(2,2,2-trifluoroethoxy)phenyl]-6,8-dihydro-5H-imidazo[1,5-a]pyrazine-1-carboxamide] returned an EC50 of 500 to 5000 nM. On to `O=C(NCc1ccccc1-c1ccccn1)c1c2n(c(=O)n1-c1ccc(OC3CC3)cc1)CCN(C(=O)c1ccc(Br)c(Cl)c1)C2` [Example 369, 7-(4-bromo-3-chloro-benozyl)-2-[4-(cyclopropoxy)phenyl]-3-oxo-N-[[2-(2-pyridyl)phenyl]methyl]-6,8-dihydro-5H-imidazo[1,5-a]pyrazine-1-carboxamide], for which the 50% effective concentration (EC50) was < 100 nM.

In the case of `O=C(NCc1ccccc1-c1ccccn1)c1c2n(c(=O)n1-c1ccc(OCC(F)(F)F)cc1)CCN(C(=O)c1ccc(Br)c(Cl)c1)C2` [Example 370, 7-(4-bromo-3-chloro-benzoyl)-3-oxo-N-[[2-(2-pyridyl)phenyl]methyl]-2-[4-(2,2,2-trifluoroethoxy)phenyl]-6,8-dihydro-5H-imidazo[1,5-a]pyrazine-1-carboxamide], the EC50 is < 100 nM. `O=C(NCc1ccccc1-c1ncco1)c1c2n(c(=O)n1-c1ccc(OCC(F)(F)F)cc1)CCN(C(=O)c1ccc(Br)c(Cl)c1)C2` [Example 375, 7-(4-bromo-3-chloro-benzoyl)-N-[(2-oxazol-2-ylphenyl)methyl]-3-oxo-2-[4-(2,2,2-trifluoroethoxy)phenyl]-6,8-dihydro-5H-imidazo[1,5-a]pyrazine-1-carboxamide] displayed a half-maximal effective concentration (EC50) of 100 to 500 nM.

As for `O=C(NCc1ccccc1-c1ncccn1)c1c2n(c(=O)n1-c1ccc(OC3CC3)cc1)CCN(C(=O)c1ccc(Br)c(Cl)c1)C2` [Example 376, 7-(4-bromo-3-chloro-benzoyl)-2-[4-(cyclopropoxy)phenyl]-3-oxo-N-[(2-pyrimidin-2-ylphenyl)methyl]-6,8-dihydro-5H-imidazo[1,5-a]pyrazine-1-carboxamide], the EC50 was < 100 nM.

The term EC50 denotes the concentration at which the effect is half-maximal. A higher EC50 goes with weaker potency.
